# Reference: ChEMBL document CHEMBL1201862, “PubChem BioAssay data set” (2004)
#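 Grown in 96-well plates, cells were treated for 48 hours with each compound at five concentrations. Insufficient inhibition: endpoint recorded as highest concentration tested. GI50: concentration for 50% inhibition of growth.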 Activity calls are given as the source filed them. No stated cut-off is given here; in the data, active = GI50 up to about 1.1 µM and inactive = higher.
# Assays:
# Assay in all cases: inhibition of tumour cell growth, NCI panel, 48 h
# BT-549 = system: BT-549
# OVCAR-4 = system: OVCAR-4
# DU-145 = system: DU-145
# HCT-15 = system: HCT-15
# ACHN = system: ACHN
# MCF7 = system: MCF7
# IGROV-1 = system: IGROV-1
# T47D = system: T47D
# UACC-62 = system: UACC-62
# SF-295 = system: SF-295
# A498 = system: A498
# CAKI-1 = system: CAKI-1
# MOLT-4 = system: MOLT-4
# OVCAR-5 = system: OVCAR-5
# SN12C = system: SN12C
# MDA-MB-435 = system: MDA-MB-435
# LOX IMVI = system: LOX IMVI
# HT-29 = system: HT-29
# RPMI-8226 = system: RPMI-8226
# UACC-257 = system: UACC-257
# CCRF-CEM = system: CCRF-CEM
# NCI-H522 = system: NCI-H522
# SW-620 = system: SW-620
# MDA-N = system: MDA-N
# MDA-MB-231 = system: MDA-MB-231
# SK-MEL-28 = system: SK-MEL-28
# COLO 205 = system: COLO 205
# SK-OV-3 = system: SK-OV-3
# HCT-116 = system: HCT-116
# NCI-H460 = system: NCI-H460
# U-251 = system: U-251
# SNB-75 = system: SNB-75
# SNB-19 = system: SNB-19
# 786-0 = system: 786-0
# K562 = system: K562
# SF-268 = system: SF-268
# M14 = system: M14
# TK-10 = system: TK-10
# HOP-92 = system: HOP-92
# Malme-3M = system: Malme-3M
# HL-60 = system: HL-60
# KM12 = system: KM12
# NCI-H23 = system: NCI-H23
# SF-539 = system: SF-539
# A549 = system: A549
# RXF 393 = system: RXF 393
# OVCAR-3 = system: OVCAR-3
# OVCAR-8 = system: OVCAR-8
# HOP-62 = system: HOP-62
# SK-MEL-5 = system: SK-MEL-5
# NCI/ADR-RES = system: NCI/ADR-RES
# SR = system: SR
# EKVX = system: EKVX
# PC-3 = system: PC-3
# SK-MEL-2 = system: SK-MEL-2
# NCI-H226 = system: NCI-H226
# HCC 2998 = system: HCC 2998
# Hs-578T = system: Hs-578T
# DLD-1 = system: DLD-1
# UO-31 = system: UO-31
# M19-MEL = system: M19-MEL
# LXFL 529 = system: LXFL 529
# DMS-114 = system: DMS-114
# DMS-273 = system: DMS-273
# XF498 = system: XF498
smiles,measurement,setting,value
O=c1c2cccnc2[nH]c2ccc3cn[nH]c3c12,GI50,BT-549,> 10 µM (inactive)
same,GI50,OVCAR-4,> 10 µM (inactive)
same,GI50,DU-145,> 10 µM (inactive)
same,GI50,HCT-15,9.42 µM
same,GI50,ACHN,3.97 µM (inactive)
same,GI50,MCF7,7.06 µM (inactive)
same,GI50,IGROV-1,3.33 µM (inactive)
same,GI50,T47D,> 10 µM (inactive)
same,GI50,UACC-62,> 10 µM (inactive)
same,GI50,SF-295,> 10 µM (inactive)
same,GI50,A498,> 10 µM (inactive)
same,GI50,CAKI-1,8.77 µM (inactive)
same,GI50,MOLT-4,> 10 µM (inactive)
same,GI50,OVCAR-5,> 10 µM (inactive)
same,GI50,SN12C,9.06 µM (inactive)
same,GI50,MDA-MB-435,> 10 µM (inactive)
same,GI50,LOX IMVI,5.58 µM (inactive)
same,GI50,HT-29,> 10 µM (inactive)
same,GI50,RPMI-8226,> 10 µM (inactive)
same,GI50,UACC-257,> 10 µM (inactive)
same,GI50,CCRF-CEM,6.15 µM (inactive)
same,GI50,NCI-H522,> 10 µM (inactive)
same,GI50,SW-620,> 10 µM (inactive)
same,GI50,MDA-N,> 10 µM (inactive)
same,GI50,MDA-MB-231,8.53 µM (inactive)
same,GI50,SK-MEL-28,> 10 µM (inactive)
same,GI50,COLO 205,> 10 µM (inactive)
same,GI50,SK-OV-3,> 10 µM (inactive)
same,GI50,HCT-116,3.61 µM (inactive)
same,GI50,NCI-H460,7.43 µM (inactive)
same,GI50,U-251,> 10 µM (inactive)
same,GI50,SNB-75,7.89 µM (inactive)
same,GI50,SNB-19,> 10 µM (inactive)
same,GI50,786-0,> 10 µM (inactive)
same,GI50,K562,> 10 µM (inactive)
same,GI50,SF-268,> 10 µM (inactive)
same,GI50,M14,7.14 µM (inactive)
same,GI50,TK-10,> 10 µM (inactive)
same,GI50,HOP-92,> 10 µM (inactive)
same,GI50,Malme-3M,> 10 µM (inactive)
same,GI50,HL-60,4.49 µM (inactive)
same,GI50,KM12,5.05 µM (inactive)
same,GI50,NCI-H23,> 10 µM (inactive)
same,GI50,SF-539,7.52 µM (inactive)
same,GI50,A549,> 10 µM (inactive)
same,GI50,RXF 393,2.15 µM (inactive)
same,GI50,OVCAR-3,> 10 µM (inactive)
same,GI50,OVCAR-8,6.76 µM (inactive)
same,GI50,HOP-62,> 10 µM (inactive)
same,GI50,SK-MEL-5,> 10 µM (inactive)
same,GI50,NCI/ADR-RES,> 10 µM (inactive)
same,GI50,SR,3.29 µM (inactive)
same,GI50,EKVX,3.48 µM (inactive)
same,GI50,PC-3,> 10 µM (inactive)
same,GI50,SK-MEL-2,> 10 µM (inactive)
same,GI50,NCI-H226,5.38 µM (inactive)
same,GI50,HCC 2998,> 10 µM (inactive)
same,GI50,Hs-578T,6.21 µM (inactive)
O=S(=O)(c1ccccc1)C1(C2(S(=O)(=O)c3ccccc3)CCN=N2)CCN=N1 (stereo not given),GI50,OVCAR-4,> 100 µM (inactive)
same,GI50,HCT-15,> 100 µM
same,GI50,ACHN,> 100 µM (inactive)
same,GI50,IGROV-1,> 100 µM (inactive)
same,GI50,DLD-1,> 100 µM (inactive)
same,GI50,UO-31,> 100 µM (inactive)
same,GI50,SF-295,> 100 µM (inactive)
same,GI50,CAKI-1,> 100 µM (inactive)
same,GI50,MOLT-4,> 100 µM (inactive)
same,GI50,OVCAR-5,> 100 µM (inactive)
same,GI50,SN12C,> 100 µM (inactive)
same,GI50,M19-MEL,> 100 µM (inactive)
same,GI50,LOX IMVI,> 100 µM (inactive)
same,GI50,HT-29,> 100 µM (inactive)
same,GI50,RPMI-8226,> 100 µM (inactive)
same,GI50,UACC-257,> 100 µM (inactive)
same,GI50,CCRF-CEM,> 100 µM (inactive)
same,GI50,NCI-H522,> 100 µM (inactive)
same,GI50,LXFL 529,> 100 µM (inactive)
same,GI50,SW-620,> 100 µM (inactive)
same,GI50,SK-MEL-28,> 100 µM (inactive)
same,GI50,COLO 205,> 100 µM (inactive)
same,GI50,SK-OV-3,> 100 µM (inactive)
same,GI50,HCT-116,> 100 µM (inactive)
same,GI50,NCI-H460,> 100 µM (inactive)
same,GI50,U-251,> 100 µM (inactive)
same,GI50,SNB-75,> 100 µM (inactive)
same,GI50,SNB-19,> 100 µM (inactive)
same,GI50,786-0,> 100 µM (inactive)
same,GI50,K562,> 100 µM (inactive)
same,GI50,SF-268,> 100 µM (inactive)
same,GI50,M14,> 100 µM (inactive)
same,GI50,TK-10,> 100 µM (inactive)
same,GI50,Malme-3M,> 100 µM (inactive)
same,GI50,HL-60,> 100 µM (inactive)
same,GI50,KM12,> 100 µM (inactive)
same,GI50,NCI-H23,> 100 µM (inactive)
same,GI50,SF-539,> 100 µM (inactive)
same,GI50,A549,> 100 µM (inactive)
same,GI50,RXF 393,> 100 µM (inactive)
same,GI50,OVCAR-3,> 100 µM (inactive)
same,GI50,OVCAR-8,> 100 µM (inactive)
same,GI50,DMS-114,> 100 µM (inactive)
same,GI50,SR,> 100 µM (inactive)
same,GI50,EKVX,> 100 µM (inactive)
same,GI50,DMS-273,> 100 µM (inactive)
same,GI50,SK-MEL-2,> 100 µM (inactive)
same,GI50,NCI-H226,> 100 µM (inactive)
same,GI50,HCC 2998,> 100 µM (inactive)
same,GI50,XF498,> 100 µM (inactive)
O=C(NCCc1ccccc1)[C@H]1CCCC[C@@H]1CCO,GI50,BT-549,> 100 µM (inactive)
same,GI50,OVCAR-4,> 100 µM (inactive)
same,GI50,DU-145,> 100 µM (inactive)
same,GI50,HCT-15,> 100 µM
same,GI50,ACHN,> 100 µM (inactive)
same,GI50,MCF7,> 100 µM (inactive)
same,GI50,IGROV-1,> 100 µM (inactive)
same,GI50,T47D,> 100 µM (inactive)
same,GI50,UO-31,> 100 µM (inactive)
same,GI50,UACC-62,> 100 µM (inactive)
same,GI50,SF-295,> 100 µM (inactive)
same,GI50,A498,> 100 µM (inactive)
same,GI50,CAKI-1,> 100 µM (inactive)
same,GI50,MOLT-4,> 100 µM (inactive)
same,GI50,OVCAR-5,> 100 µM (inactive)
same,GI50,SN12C,> 100 µM (inactive)
same,GI50,MDA-MB-435,> 100 µM (inactive)
same,GI50,LOX IMVI,> 100 µM (inactive)
same,GI50,HT-29,> 100 µM (inactive)
same,GI50,RPMI-8226,> 100 µM (inactive)
same,GI50,UACC-257,> 100 µM (inactive)
same,GI50,CCRF-CEM,> 100 µM (inactive)
same,GI50,NCI-H522,> 100 µM (inactive)
same,GI50,SW-620,> 100 µM (inactive)
same,GI50,MDA-N,> 100 µM (inactive)
same,GI50,MDA-MB-231,> 100 µM (inactive)
same,GI50,SK-MEL-28,> 100 µM (inactive)
same,GI50,COLO 205,> 100 µM (inactive)
same,GI50,SK-OV-3,> 100 µM (inactive)
same,GI50,HCT-116,> 100 µM (inactive)
same,GI50,NCI-H460,> 100 µM (inactive)
same,GI50,U-251,> 100 µM (inactive)
same,GI50,SNB-75,> 100 µM (inactive)
same,GI50,786-0,> 100 µM (inactive)
same,GI50,K562,> 100 µM (inactive)
same,GI50,SF-268,> 100 µM (inactive)
same,GI50,M14,> 100 µM (inactive)
same,GI50,TK-10,> 100 µM (inactive)
same,GI50,HOP-92,> 100 µM (inactive)
same,GI50,HL-60,> 100 µM (inactive)
same,GI50,KM12,> 100 µM (inactive)
same,GI50,NCI-H23,> 100 µM (inactive)
same,GI50,SF-539,> 100 µM (inactive)
same,GI50,A549,> 100 µM (inactive)
same,GI50,RXF 393,> 100 µM (inactive)
same,GI50,OVCAR-3,> 100 µM (inactive)
same,GI50,OVCAR-8,> 100 µM (inactive)
same,GI50,HOP-62,> 100 µM (inactive)
same,GI50,SK-MEL-5,> 100 µM (inactive)
same,GI50,NCI/ADR-RES,> 100 µM (inactive)
same,GI50,SR,> 100 µM (inactive)
same,GI50,EKVX,> 100 µM (inactive)
same,GI50,PC-3,> 100 µM (inactive)
same,GI50,SK-MEL-2,> 100 µM (inactive)
same,GI50,NCI-H226,> 100 µM (inactive)
same,GI50,HCC 2998,> 100 µM (inactive)
same,GI50,Hs-578T,> 100 µM (inactive)
